Test results as given in patent US12458650B2, “Urination disorder-improving agent” (ASKA Pharmaceutical Co., Ltd., priority 2019, dated 2025).

Tests used:
[1] = tested on: urination disorder model associated with diabetes; experiment: Test Example 4: urination disorder model associated with streptozocin-induced diabetes (cystometry, tissue weights, blood glucose, nomogram); assay type: in vivo, rat; details: for Prostate, Dorsolateral prostate weight / Prostate, Ventral prostate weight: average ± SD; for Dorsolateral prostate (atrophy rate) / Seminal vesicle (atrophy rate) / Ventral prostate (atrophy rate) / Whole prostate (atrophy rate): relative to solvent group; for bladder contraction force on urination by nomogram analysis: in comparison with solvent group, FIG. 17
Description: As described below, as a urination disorder model, a urination disorder model associated with diabetes was prepared to evaluate the urination disorder. This model has no benign prostatic hyperplasia and is a model of a urination disorder associated with neuropathy and smooth muscle contraction disorder.
The body weights of rats (male, Crl:CD(SD), 5-week-old; Charles River Laboratories Japan, Inc.) were measured. After the rats were fasted overnight, the blood was collected from the caudal vein to measure the fasting blood glucose. On the basis of the body weight and the tasting blood glucose level, the rats were grouped or divided into two (2) groups by randomized, multivariable block allocation. The day after the rats were grouped, a first group received intraperitoneal administration of a citrate buffer (pH 4.5) (10 mL/kg) having a concentration of 0.1 mmol/L, and a second group received intraperitoneal administration of streptozocin (STZ; Sigma-Aldrich) (50 mg/kg). Streptozocin (STZ) was administered in the form of a solution of streptozocin having a concentration of 5 mg/mL in the citrate buffer.
About one (1) week after streptozocin (STZ) was administered, the body weight and the fasting blood glucose were measured. In the streptozocin (STZ) administration group (the second group), individuals having a fasting blood glucose level of not less than 300 mg/dL were used as animals with induced diabetes. These animals with induced diabetes are a model having no abnormality of the prostate (having no benign prostatic hyperplasia). On the basis of the body weight and the fasting blood glucose level, the animals (models) with induced diabetes were grouped or divided into three (3) groups by randomized, multivariable block allocation.
To the three model groups with induced diabetes, a 0.5 v/v % Polysorbate 80 solution (0.5% P) (10 mL/kg), the compound A (3 mg/kg), and the compound A (10 mg/kg) were orally administered, respectively, wherein the administration schedule in all groups was a frequency of once a day, only on weekdays, over four (4) weeks. Moreover, to the above-mentioned first group, a 0.5 v/v % Polysorbate 80 solution (0.5% P) (10 mL/kg) was orally administered in the same administration schedule (normal group). On the last day of administration, a cannula was inserted into and secured to the dome of the bladder under isoflurane anesthesia, and cystometry (Cystometogram, CMG) was conducted in the order of under awake condition and under urethane anesthesia to measure the intravesical pressure, the voided volume, and the residual urine volume. After the completion of the measurement, the blood was collected under deep isoflurane anesthesia, and then the prostate (ventral prostate, dorsolateral prostate), the seminal vesicle, the bladder, and the kidney were extracted and were each weighed. Moreover, the blood glucose level in the collected blood was measured.
The test substances and the dosage in the test system (rats having the urination disorder associated with diabetes) are as follows. • Normal group: citrate buffer 10 mL/kg (intraperitoneal administration), 0.5% P 10 mL/kg (oral administration) (n=10) • Solvent group (control group): STZ 50 mg/kg (intraperitoneal administration), 0.5% P 10 mL/kg (oral administration) (n=10) • Group A3: STZ 50 mg/kg (intraperitoneal administration), Compound A 3 mg/kg (oral administration) (n=10) • Group A10: STZ 50 mg/kg (intraperitoneal administration), Compound A 10 mg/kg (oral administration) (n=9) Urination Parameter:
The resulting data of the intravesical pressure, the voided volume, and the residual urine volume were analyzed, and the bladder capacity (mL), the residual urine volume (mL), and the urination efficiency (%) were determined as urination parameters in each urination. With respect to these urination parameters, the average value of two measurements was calculated and was taken as a measured value of each individual. […]

[2] = tested on: uterine weight associated with rat deciduoma formation; experiment: Test Example 5: antiprogesterone activity, uterine weight associated with rat deciduoma formation in ovariectomized rats; assay type: in vivo; details: 192 h, 8 days, read-out: inhibition rate of uterine weight increase (antiprogesterone action)
Description: For the compound A and the compound D (mifepristone), the antiprogesterone activity was measured. Specifically, a sex hormone and a test substance were repeatedly administered to ovariectomized rats as a test system to examine the antiprogesterone action (antiprogesterone activity) based on, as an index, the fluctuation of the uterine weight (the inhibitory action relative to the increase of the weight) associated with rat deciduoma formation.
More specifically, rats (female, Crl:CD(SD), 5-week-old: Charles River Laboratories Japan, Inc.) were subjected to ovariectomy, and from one (1) week after the ovariectomy, a high dose estrone or 5 μg/one animal was hypodermically administered to the rats once a day for three (3) days. From the day after one day rest period, the rats received, once a day over eight (8) days, hypodermic administration of a low dose estrone (1 μg/one animal), intramuscular administration of progesterone (6 mg/kg), and oral administration of a test substance. In the middle of the administration, on Day 4 of the start of administration, the rats were subjected to a stimulation treatment of decidualization reaction to the right uterus. The day after the final administration, the uterine weight (right uterine body) was measured (n=6). Group E was subjected to ovariectomy and a stimulation treatment of decidualization reaction but was not subjected to a hormone treatment.
The test substances and the dosage in the test system (ovariectomized rats) are as follows. • Group E: rats with ovariectomy without hormone treatment • 0.5 v/v % Polysorbate 80 solution, 10 mL/kg (n=6) • Solvent group (control group): 0.5 v/v % Polysorbate 80 solution, 10 mL/kg (n=6) • Group A3: Compound A, 3 mg/kg (n=6) • Group A10: Compound A, 10 mg/kg (n=6) • Group A30: Compound A, 30 mg/kg (n=6) • Group D: Compound D (mifepristone), 3 mg/kg (n=6)

[3] = Group A3: 3 mg/kg oral, 4 weeks
[4] = Group A10: 10 mg/kg oral, 4 weeks

In the case of `CC(=O)O[C@]1(C(C)=O)C[C@@H](O)[C@H]2[C@@H]3C=C(Cl)C4=CC(=O)OC[C@]4(C)[C@H]3CC[C@@]21C` [Compound A, 17α-acetoxy-6-chloro-15β-hydroxy-2-oxa-4,6-pregnadiene-3,20-dione], the “Prostate, Dorsolateral prostate weight” value [1, 3] is reported as 35.3 ± 7.8 mg/100 g body weight, the “Prostate, Ventral prostate weight” value ([1]; Group A3: 3 mg/kg oral, 4 weeks, male STZ rats) is reported as 62.2 ± 11.4 mg/100 g body weight and the “Dorsolateral prostate (atrophy rate)” value [1, 3] is reported as “(44.2%)”. The “Seminal vesicle (atrophy rate)” value [1, 3] was “(41.8%)”, the “Ventral prostate (atrophy rate)” value [1, 3] was “(43.0%)” and the “Whole prostate (atrophy rate)” value [1, 3] was “(43.4%)”. For the same molecule, the urination efficiency ([1]; Group A3: 3 mg/kg, cystometry under anesthesia, FIG. 16) was “improved”, the “bladder contraction force on urination by nomogram analysis” value ([1]; Group A3: 3 mg/kg, cystometry under anesthesia) was “strong bladder contraction force” and the residual urine volume ([1]; Group A3: 3 mg/kg, cystometry under anesthesia, vs solvent group, FIG. 15) was “significantly decreased”. The bladder capacity ([1]; Group A3: 3 mg/kg, cystometry under awake condition, vs solvent group, FIG. 11) was “significantly reduced”, the residual urine volume ([1]; Group A3: 3 mg/kg, cystometry under awake condition, vs solvent group, FIG. 12) was “significantly reduced” and the urination efficiency ([1]; Group A3: 3 mg/kg, cystometry under awake condition, vs solvent group, FIG. 13) was “improved”. For the same molecule, the “therapeutic effect on diabetes (blood glucose level relative to the solvent group)” value ([1]; Group A3 and Group A10: 3 and 10 mg/kg oral, 4 weeks) was “no therapeutic effect on diabetes”, the “Prostate, Dorsolateral prostate weight” value [1, 4] was 28.8 ± 6.1 mg/100 g body weight and the “Prostate, Ventral prostate weight” value [1, 4] was 53.1 ± 13.5 mg/100 g body weight. The “Dorsolateral prostate (atrophy rate)” value [1, 4] was “(54.5%)”, the “Seminal vesicle (atrophy rate)” value [1, 4] was “(50.2%)” and the “Ventral prostate (atrophy rate)” value [1, 4] was “(51.3%)”. The “Whole prostate (atrophy rate)” value [1, 4] was “(52.5%)”, the urination efficiency ([1]; Group A10: 10 mg/kg, cystometry under anesthesia, FIG. 16) was “improved” and the bladder capacity ([1]; Group A10: 10 mg/kg, cystometry under anesthesia, P=0.0336, FIG. 14) was “reduced”. The “bladder contraction force on urination by nomogram analysis” value ([1]; Group A10: 10 mg/kg, cystometry under anesthesia) was “strong bladder contraction force”, the residual urine volume ([1]; Group A10: 10 mg/kg, cystometry under anesthesia, vs solvent group, FIG. 15) was “significantly decreased” and the bladder capacity ([1]; Group A10: 10 mg/kg, cystometry under awake condition, vs solvent group, FIG. 11) was “significantly reduced”. For the same molecule, the residual urine volume ([1]; Group A10: 10 mg/kg, cystometry under awake condition, vs solvent group, FIG. 12) was “significantly reduced”, the urination efficiency ([1]; Group A10: 10 mg/kg, cystometry under awake condition, vs solvent group, P=0.0359, FIG. 13) was “significantly improved” and the inhibition at 3 mg/kg ([2]; Group A3: 3 mg/kg oral once a day, not significant) was 15%. For the same molecule, the inhibition at 10 mg/kg ([2]; Group A10: 10 mg/kg oral once a day, significant) was 63% and the inhibition at 30 mg/kg ([2]; Group A30: 30 mg/kg oral once a day, significant) was 83.3%.
